Here are results for one compound from patent US20230330060A1, “COMPOUNDS FOR TREATMENT OF HEART FAILURE” (Sulfateq B.V., priority 2020, published 2023).

The subject of this assay is H9C2 cardiomyocytes. The assay can be described thus: Quantification of phenylephrine-induced EGFP synthesis as surrogate for cell size (hypertrophy). Format: cell-based, rat. The procedure: Rat H9C2 cardiomyoblasts (ATCC CRL-1446) were maintained in DMEM medium containing 10% fetal bovine serum and 1% Penicillin-Streptomycin solution (Sigma-Aldrich) and passaged when the cultures reach a confluency of 70%. Prior to experiments, H9C2 myoblasts were differentiated to cardiomyocytes by serum reduction (to 1%) and stimulation with 20 nM retinoic acid for 5 days. Differentiated H9C2 cardiomyocytes were seeded at 0.6·10^5 cells/cm^2 for all experiments.
H9C2 cardiomyocytes (0.6·10^5 cells/cm2) were infected with CMV-copGPF (MOI 10) in culture medium without serum for 24 h. H9C2 cardiomyocytes were pre-incubated with 30 μM SUL compounds under standard culture conditions for 30 min and then stimulated with phenylephrine (dose range 2·10^−5 to 1·10^−11 M) for an additional period of 24 h. Thereafter H9C2 cardiomyocytes were lysed in 100 μl soft lysis buffer (25 mM Tris, 2 mM Dithiothreitol, 2 mM EDTA, 1% Triton X-100, pH 7.4). per well and fluorescence intensity of the obtained supernatant was recorded in a CLARIOStar Plus plate reader (BMG Labtech) equipped with a FITC filter set (excitation 488 nm with 10 nm bandwidth; emission 515 with a 20 nm bandwidth).
All experiments were performed in triplicate per condition and averaged. Data obtained from two individual experiments were used for evaluation in GraphPad Prism 8.0 (GraphPad Software Inc, Ca). Average H9C2 cardiomyocyte cell size was associated to average EGFP levels using linear regression. Phenylephrine-induced EGFP synthesis was normalized, using baseline levels as 0% and maximum EGFP recordings as 100%. All datasets were normalized to vehicle controls. 4 parameter non-linear regression was used to determine the efficacy of potency of phenylephrine to induce GFP synthesis. The efficacy of SUL compounds to inhibit phenylephrine-induced EGFP synthesis was calculated as 100%-Emax, wherein Emax is the maximal effect evoked by phenylephrine.

`Cc1c(C)c2c(c(C)c1O)CC[C@](C)(C(=O)N1CCNCC1)O2` [SUL-150, (R)-(6-hydroxy-2,5,7,8-tetramethylchroman-2-yl)(piperazin-1-yl)methanone]: the “SUL EGFP Inhibition (%)” value (30 μM SUL compound, calculated as 100%-Emax) is 66.49%. The “Expression of EGFP induced by phenylephrine (FIG. 3)” value (preincubation with 30 μM compound) is on record as “reduced the expression of EGFP”.
